In patent US8703951B2, “Synthesis of 4H-benzo[D]pyrrolo[1,2-A]thiazoles and indolizino[6,7-b]indole derivatives and their use as antitumor therapeutic agents” (Academia Sinica, priority 2011, dated 2014):
Like-named read-outs stand apart in the source and are kept apart here.

Columns and labels:
[1] = system: human lymphoblastic leukemia (CCRF-CEM); experiment: In vitro cytotoxicity, XTT assay, CCRF-CEM; assay type: cell-based
From the text: (§1) Human colon carcinoma HCT-116 cells and human prostate adenocarcinoma PC-3 cells were obtained from American Type Culture Collection (ATCC, Rockville, Md.). Human mammary carcinoma (MX-1) tumor cells were obtained from MSKCC cell bank. The CCRF-CEM human lymphoblastic leukemia cells and their vinblastine resistant subline (CCRF-CEM/VBL, 680-fold resistance in vitro) were obtained from Dr. William Beck of the University of Illinois, Chicago, and CCRF-CEM/Taxol (330-fold resistance in vitro). Resistant cells CCRF-CEM/taxol were produced by exposing the parent cells to increasing sublethal concentration (IC50-IC90) of paclitaxel for six months.
(§2) In preparation for in vitro cytotoxicity assays, cells were cultured at an initial density 2−5×10^4 cells per milliliter. They were maintained in a 5% CO2-humidified atmosphere at 37° C. in RPMI medium 1640 (GIBCO/BRL) containing penicillin (100 units/mL), streptomycin (100 μg/mL, GIBCO/BRL), and 5% heat-inactivated FBS. For cells grown in suspension (such as CCRF-CEM and its sublines), cytotoxicity was measured, by using XTT microculture method^23 in 96-well microtiter plates.
(§3) The cytotoxic effects of the newly synthesized compounds were determined in T-cell acute lymphocytic leukemia (CCRF-CEM) and their resistant subcell lines (CCRF-CEM/Taxol and CCRF-CEM/VBL) by the XTT assay^24 and human solid tumor cells (i.e. breast carcinoma MX-1 and colon carcinoma HCT-116) by the SRB assay^25 in a 72 h incubation using a microplate spectrophotometer as described previously.^25 After the addition of phenazine methosulfate-XTT solution, incubated at 37° C. for 6 h and absorbance at 450 and 630 nm was detected on a microplate reader (EL 340). The cytotoxicity of the newly synthesized compounds against non-small cell lung carcinoma H1299, prostate cancer PC3, oral cancer OECM-1 and glioma U87 were determined by the Alamar blue assay^26 in a 72 h incubation using a microplate spectrophotometer as described previously. After the addition of alamar blue solution, it was incubated at 37° C. for 6 h. Absorbance at 570 and 600 nm was detected on a microplate reader. IC50 values were determined from dose-effect relationship at six or seven concentrations of each drug using the CompuSyn software by Chou and Martin^27 based on the median-effect principle and plot.^28,29 Ranges given for Cisplatin were mean±SE (n=4).

[2] = system: non-small cell lung carcinoma H1299; experiment: In vitro cytotoxicity, Alamar blue assay, H1299; assay type: cell-based, human
Method: (§4) Prostate cancer PC3, non-small cell lung carcinoma cells H1299, and human glioma cells U87 were purchased from the American Type Culture Collection (Rockville, Md.). OECM-1 (human gingival squamous cell carcinoma cells) was obtained from Dr C.-L. Meng (National Defense Medical College, Taiwan).^22
as §2, §3

oral cancer OECM-1 = experiment: In vitro cytotoxicity, Alamar blue assay, OECM-1; assay type: cell-based, human
Method: as §4, §2, §3

[3] = system: MX-1 human mammary xenograft; experiment: Therapeutic efficacy in nude mice bearing MX-1 xenograft; assay type: in vivo; details: for complete tumor remission (CR): FIG. 6, i.v. inj., n=4
Method: Athymic nude mice bearing the nu/nu gene were obtained from NCI, Frederick, Md. and used for all human tumor xenografts. Male nude mice, 6 weeks or older, weighing 20-24 g or more were used. Compounds were administered via the tail vein for i.v. injection or infusion as described previously.^26 A typical formulation for chemotherapeutic studies for each drug was dissolved in DSMO to make a 25 mg/ml fresh solution, 0.4 ml of this solution was mixed with 0.3 ml of Tween 80, plus 1.3 ml to make 2 ml of 5 mg/ml solution. Bolus injection volume was 0.1-0.2 ml per mouse. Tumor volume was assessed by measuring length×width×height (or width) by using a caliper. For tumor-bearing nude mice during the course of the experiment, the body weight refers to total weight minus the weight of the tumor. All animal studies were conducted in accordance with the guidelines for the National Institute of Health Guide for the Care and Use of Animals and the protocol approved by the Institutional Animal Care and Use Committee.

CCRF-CEM/Taxol = experiment: In vitro cytotoxicity, XTT assay, CCRF-CEM/Taxol; assay type: cell-based, human; details: Table 5; for IC50: Taxol-resistant subline, XTT, 72 h, read-out: Cell Growth inhibition (IC50 μM) CCRF-CEM/Taxol; for fold of cross-resistant vs IC50 of the parent cell line, CCRF-CEM/Taxol: number in brackets
From the text: as §1, §2, §3

CCRF-CEM/VBL = experiment: In vitro cytotoxicity, XTT assay, CCRF-CEM/VBL; assay type: cell-based, human; details: Table 5; for IC50: vinblastine-resistant subline, XTT, 72 h, read-out: Cell Growth inhibition (IC50 μM) CCRF-CEM/VBL; for fold of cross-resistant vs IC50 of the parent cell line, CCRF-CEM/VBL: number in brackets
From the text: as §1, §2, §3

breast carcinoma MX-1 = experiment: In vitro cytotoxicity, SRB assay, MX-1; assay type: cell-based, human; details: Table 6, 72 h
From the text: as §1, §2, §3

colon carcinoma HCT-116 = experiment: In vitro cytotoxicity, SRB assay, HCT-116; assay type: cell-based, human
From the text: as §1, §2, §3

prostate cancer PC3 = experiment: In vitro cytotoxicity, Alamar blue assay, PC3; assay type: cell-based, human
Method: as §4, §2, §3

glioma U87 = experiment: In vitro cytotoxicity, Alamar blue assay, U87; assay type: cell-based, human
Method: as §4, §2, §3

linearized pBR322DNA = experiment: DNA cross-linking, alkaline agarose gel shift assay; assay type: biochemical; details: 1, 10, and 20 μM; FIG. 8
Method: Formation of DNA cross-linking was analyzed by alkaline agarose gel electrophoresis assay. […] The reaction mixture was incubated at 37° C. for 2 h. At the end of reaction, the plasmid DNA was linearized by digestion with BamHI and followed by precipitation with ethanol. The DNA pellets were dissolved and denatured in alkaline buffer (0.5 N NaOH-10 mM EDTA). An aliquot of 20 μL of DNA solution (1000 ng) was mixed with 4 μL of 6× alkaline loading dye and then electrophoretically resolved on a 0.8% alkaline agarose gel with NaOH-EDTA buffer at 4° C. The electrophoresis was carried out at 18 V for 22 h. After staining the gels with an ethidium bromide solution, the DNA was then visualized under UV light.

[4] = system: human large cell lung carcinoma H460 xenograft; details: combination with arsenic trioxide (ATO); background; cited from earlier work
[5] = system: cisplatin-resistant NTUB 1/P human bladder carcinoma xenografts; details: combination with arsenic trioxide (ATO); background; cited from earlier work
[6] = Homo sapiens, CCRF-CEM, Table 5, 72 h incubation, read-out: Cell Growth inhibition (IC50 μM) CCRF-CEM
[7] = Homo sapiens, NCI-H1299, Table 6, 72 h
[8] = Homo sapiens, OECM1, Table 6, 72 h
[9] = Table 5, 72 h incubation, read-out: Cell Growth inhibition (IC50 μM) CCRF-CEM

| Structure (SMILES) | fold of cross-resistant vs IC50 of the parent cell line, CCRF-CEM/Taxol (CCRF-CEM/Taxol) [×] | fold of cross-resistant vs IC50 of the parent cell line, CCRF-CEM/VBL (CCRF-CEM/VBL) [×] | DNA interstrand cross-linking (linearized pBR322DNA) | IC50 [1, 9] [µM] | IC50 (CCRF-CEM/Taxol) [µM] | IC50 (CCRF-CEM/VBL) [µM] | IC50 (breast carcinoma MX-1) [µM] | IC50 (colon carcinoma HCT-116; Table 6, 72 h) [µM] | IC50 ([2]; Table 6, 72 h) [µM] | IC50 (prostate cancer PC3; Table 6, 72 h) [µM] | IC50 (oral cancer OECM-1; Table 6, 72 h) [µM] | IC50 (glioma U87; Table 6, 72 h) [µM] | other results |
| --- | --- | --- | --- | --- | --- | --- | --- | --- | --- | --- | --- | --- | --- |
| CC(C)NC(=O)OCc1c(COC(=O)NC(C)C)c2n(c1-c1ccc(F)cc1)CC(C)c1c-2[nH]c2ccccc12 (stereo not drawn) [Compound 28c, [3-(4-Fluorophenyl)-6-methyl-6,11-dihydro-5H-indolizino[6,7-b]indole-1,2-diyl]bis(methylene) (isopropylcarbamate)] |  |  |  |  |  |  |  |  |  |  |  |  | IC50 ([1]; Table 7, 72 h, read-out: IC50 (μM) CCRF/CEM): 0.106 ± 0.004 µM; IC50 ([2]; Table 7, 72 h): 16.9 ± 2.69 µM; IC50 (oral cancer OECM-1; Table 7, 72 h, read-out: IC50 (μM) OECM1): 6.56 ± 1.15 µM; complete tumor remission (CR) [3]: CR was achieved |
| OCc1c(CO)c2sc3ccccc3n2c1-c1ccc(Cl)cc1 [Compound 18c, (1-(4-Chlorophenyl)benzo[d]pyrrolo[2,1-b]thiazole-2,3-diyl)dimethanol] | 2.00 | 1.56 | able to bind covalently (interstrand cross-linking) with DNA |  |  |  |  |  |  |  |  |  | IC50 [1, 6]: 2.61 ± 0.03 µM; IC50 (CCRF-CEM/Taxol; Homo sapiens, CCRF-CEM): 5.22 ± 0.026 µM; IC50 (CCRF-CEM/VBL; Homo sapiens, CCRF-CEM): 4.09 ± 0.025 µM; IC50 (breast carcinoma MX-1; Homo sapiens): 10.4 ± 0.003 µM; IC50 (colon carcinoma HCT-116; Homo sapiens, HCT-116, Table 6, 72 h): 9.26 ± 0.049 µM; IC50 [2, 7]: 12.4 ± 0.44 µM; IC50 (prostate cancer PC3; Homo sapiens, Table 6, 72 h): 20.4 ± 3.43 µM; IC50 (oral cancer OECM-1; [8]): 14.6 ± 1.13 µM; IC50 (glioma U87; Homo sapiens, Table 6, 72 h): 20.7 ± 2.26 µM |
| CC(C)NC(=O)OCc1c(-c2ccc(F)cc2)c2sc3ccccc3n2c1COC(=O)NC(C)C [Compound 20b, (1-(4-Fluorophenyl)benzo[d]pyrrolo[2,1-b]thiazole-2,3-diyl)bis(methylene)bis(iso-propylcarbamate)] | 3.20 | 3.80 |  | 0.05 ± 0.001 | 0.16 ± 0.007 | 0.19 ± 0.003 | 0.62 ± 0.014 | 0.35 ± 0.01 | 33 ± 3.2 | 24.2 ± 4.17 | 11.9 ± 2.9 | 53.5 ± 9.97 | complete tumor remission (CR), mice ([3]; 20 mg/kg, Q2Dx3 and then 25 mg/kg, Q2D×4, iv. inj., on D26 and 28): two out of three |
| CCn1c2c(c3ccccc31)Cc1c(CO)c(CO)c(C)n1C2 [Compound 33b, [6-Ethyl-3-methyl-6,11-dihydro-5H-indolizino[6,7-b]indole-1,2-diyl]dimethanol] |  |  |  |  |  |  |  |  |  |  |  |  | IC50 ([1]; Homo sapiens, CCRF-CEM, Table 7, 72 h, read-out: IC50 (μM) CCRF/CEM): 0.1 ± 0.002 µM; IC50 ([2]; Homo sapiens, NCI-H1299, Table 7, 72 h): 2.97 ± 0.55 µM; IC50 (prostate cancer PC3; Homo sapiens, Table 7, 72 h): 2.66 ± 0.47 µM; IC50 (oral cancer OECM-1; Homo sapiens, OECM1, Table 7, 72 h): 1.17 ± 0.89 µM; IC50 (glioma U87; Homo sapiens, Table 7, 72 h): 6.26 ± 1.43 µM; complete tumor remission (CR) [3]: CR was achieved; melting point: 216 to 217 °C |
| CCNC(=O)OCc1c(COC(=O)NCC)c2sc3ccccc3n2c1-c1ccc(Cl)cc1 [Compound 19c, (1-(4-Chlorophenyl)benzo[d]pyrrolo[2,1-b]thiazole-2,3-diyl)bis(methylene)bis(ethylcarbamate)] | 1.52 | 1.85 | able to bind covalently (interstrand cross-linking) with DNA | 0.21 ± 0.01 | 0.32 ± 0.003 | 0.39 ± 0.012 | 0.91 ± 0.01 | 0.7 ± 0.008 | 4.33 ± 0.45 | 13.8 ± 3.78 | 11.6 ± 2.84 | 26 ± 2.27 |  |
| CC(C)NC(=O)OCc1c(COC(=O)NC(C)C)c2sc3ccccc3n2c1-c1ccc(Cl)cc1 [Compound 20c, (1-(4-Chlorophenyl)benzo[d]pyrrolo[2,1-b]thiazole-2,3-diyl)bis(methylene)bis(iso-propylcarbamate)] | 4.87 | 5.25 | able to bind covalently (interstrand cross-linking) with DNA | 0.08 ± 0.0003 | 0.39 ± 0.004 | 0.42 ± 0.001 | 1.19 ± 0.004 | 1.7 ± 0.006 | 8.75 ± 0.88 | 13.7 ± 1.28 | 7.54 ± 0.95 | 29 ± 4.49 | complete tumor remission, mice ([3]; 20 mg/kg, Q2Dx3 and then 25 mg/kg, Q2Dx5, on D24, 26, and 26, FIG. 5A): all three |
| COc1ccc(-c2c(CO)c(CO)c3sc4ccccc4n23)cc1 [Compound 18g, (1-(4-Methoxyphenyl)benzo[d]pyrrolo[2,1-b]thiazole-2,3-diyl)dimethanol] | 1.9 | 2.30 | able to bind covalently (interstrand cross-linking) with DNA |  |  |  |  |  |  |  |  |  | IC50 [1, 6]: 1.13 ± 0.09 µM; IC50 (CCRF-CEM/Taxol; Homo sapiens, CCRF-CEM): 2.17 ± 0.02 µM; IC50 (CCRF-CEM/VBL; Homo sapiens, CCRF-CEM): 2.63 ± 0.031 µM; IC50 [2, 7]: 9.94 ± 1.87 µM; IC50 (prostate cancer PC3; Homo sapiens, Table 6, 72 h): 8.81 ± 1.2 µM; IC50 (oral cancer OECM-1; [8]): 5 ± 0.78 µM; IC50 (glioma U87; Homo sapiens, Table 6, 72 h): 18.1 ± 3.71 µM |
| CNC(=O)OCc1c(COC(=O)NC)c(-c2ccc(OC)cc2)n2c1Cc1ccccc1-2 [BO-1012] |  |  |  |  |  |  |  |  |  |  |  |  | tumor suppression [4]: more than 82%; tumor suppression [5]: > 92% |
